From ChEMBL document CHEMBL1201862, “PubChem BioAssay data set” (2004)
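Protocol summary: plate cells (96-well), add compound at 5 concentrations, incubate 48 h, interpolate endpoints linearly. At the GI50, growth is halved.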 Active and inactive are the calls of the source. Cut-off read from the data, not from the text of the source: active = GI50 up to about 1.1 µM and inactive = higher.

Experiments:
Assay in all cases: growth of human tumour cells (NCI), 48 h
SK-MEL-28 = tested on: SK-MEL-28
KM12 = tested on: KM12
SK-MEL-5 = tested on: SK-MEL-5
SNB-78 = tested on: SNB-78
HT-29 = tested on: HT-29
COLO 205 = tested on: COLO 205
IGROV-1 = tested on: IGROV-1
SNB-75 = tested on: SNB-75
DMS-114 = tested on: DMS-114
UACC-62 = tested on: UACC-62
TK-10 = tested on: TK-10
HCC 2998 = tested on: HCC 2998
A549 = tested on: A549
CAKI-1 = tested on: CAKI-1
OVCAR-3 = tested on: OVCAR-3
HOP-18 = tested on: HOP-18
NCI-H226 = tested on: NCI-H226
A498 = tested on: A498
HL-60 = tested on: HL-60
SN12C = tested on: SN12C
OVCAR-8 = tested on: OVCAR-8
NCI-H522 = tested on: NCI-H522
M14 = tested on: M14
MOLT-4 = tested on: MOLT-4
LOX IMVI = tested on: LOX IMVI
SR = tested on: SR
SK-OV-3 = tested on: SK-OV-3
OVCAR-5 = tested on: OVCAR-5
U-251 = tested on: U-251
KM-20L2 = tested on: KM-20L2
ACHN = tested on: ACHN
HCT-116 = tested on: HCT-116
LXFL 529 = tested on: LXFL 529
RXF 631 = tested on: RXF 631
XF498 = tested on: XF498
Malme-3M = tested on: Malme-3M
DLD-1 = tested on: DLD-1
UO-31 = tested on: UO-31
OVCAR-4 = tested on: OVCAR-4
EKVX = tested on: EKVX
K562 = tested on: K562
786-0 = tested on: 786-0
SNB-19 = tested on: SNB-19
UACC-257 = tested on: UACC-257
RPMI-8226 = tested on: RPMI-8226
SF-539 = tested on: SF-539
SF-295 = tested on: SF-295
SK-MEL-2 = tested on: SK-MEL-2
HOP-62 = tested on: HOP-62
NCI-H460 = tested on: NCI-H460
DMS-273 = tested on: DMS-273
HCT-15 = tested on: HCT-15
CCRF-CEM = tested on: CCRF-CEM
RXF 393 = tested on: RXF 393
SF-268 = tested on: SF-268
M19-MEL = tested on: M19-MEL
SW-620 = tested on: SW-620
HOP-92 = tested on: HOP-92
NCI-H23 = tested on: NCI-H23

CCOC(=O)CC(C)C1(C(=O)OCC)CCCCC1=O (stereo not given)
GI50 (SK-MEL-28): > 100 µM (inactive) | GI50 (KM12): > 100 µM (inactive) | GI50 (SK-MEL-5): > 100 µM (inactive) | GI50 (SNB-78): > 100 µM (inactive) | GI50 (HT-29): > 100 µM (inactive) | GI50 (COLO 205): 86.7 µM (inactive) | GI50 (IGROV-1): > 100 µM (inactive) | GI50 (SNB-75): > 100 µM (inactive) | GI50 (DMS-114): 20.3 µM (inactive) | GI50 (UACC-62): > 100 µM (inactive) | GI50 (TK-10): > 100 µM (inactive) | GI50 (HCC 2998): > 100 µM (inactive) | GI50 (A549): > 100 µM (inactive) | GI50 (CAKI-1): > 100 µM (inactive) | GI50 (OVCAR-3): > 100 µM (inactive) | GI50 (HOP-18): > 100 µM (inactive) | GI50 (NCI-H226): > 100 µM (inactive) | GI50 (A498): > 100 µM (inactive) | GI50 (HL-60): > 100 µM (inactive) | GI50 (SN12C): > 100 µM (inactive) | GI50 (OVCAR-8): > 100 µM (inactive) | GI50 (NCI-H522): > 100 µM (inactive) | GI50 (M14): > 100 µM (inactive) | GI50 (MOLT-4): > 100 µM (inactive) | GI50 (LOX IMVI): 67.3 µM (inactive) | GI50 (SR): 25.6 µM (inactive) | GI50 (SK-OV-3): > 100 µM (inactive) | GI50 (OVCAR-5): > 100 µM (inactive) | GI50 (U-251): > 100 µM (inactive) | GI50 (KM-20L2): 98.9 µM (inactive) | GI50 (ACHN): > 100 µM (inactive) | GI50 (HCT-116): 46 µM (inactive) | GI50 (LXFL 529): > 100 µM (inactive) | GI50 (RXF 631): > 100 µM (inactive) | GI50 (XF498): > 100 µM (inactive) | GI50 (Malme-3M): > 100 µM (inactive) | GI50 (DLD-1): 35 µM (inactive) | GI50 (UO-31): > 100 µM (inactive) | GI50 (OVCAR-4): > 100 µM (inactive) | GI50 (EKVX): > 100 µM (inactive) | GI50 (K562): > 100 µM (inactive) | GI50 (786-0): 55 µM (inactive) | GI50 (SNB-19): > 100 µM (inactive) | GI50 (UACC-257): > 100 µM (inactive) | GI50 (RPMI-8226): 25.5 µM (inactive) | GI50 (SF-539): > 100 µM (inactive) | GI50 (SF-295): > 100 µM (inactive) | GI50 (SK-MEL-2): > 100 µM (inactive) | GI50 (HOP-62): > 100 µM (inactive) | GI50 (NCI-H460): > 100 µM (inactive) | GI50 (DMS-273): 15 µM (inactive) | GI50 (HCT-15): 22.9 µM | GI50 (CCRF-CEM): > 100 µM (inactive) | GI50 (RXF 393): > 100 µM (inactive) | GI50 (SF-268): > 100 µM (inactive) | GI50 (M19-MEL): > 100 µM (inactive)

CCCCOC(=O)CNC(=O)OC/C=C/C#CC#C/C=C/COC(=O)NCC(=O)OCCCC
GI50 (SK-MEL-28): > 10 µM (inactive) | GI50 (KM12): > 10 µM (inactive) | GI50 (SK-MEL-5): > 10 µM (inactive) | GI50 (SNB-78): > 10 µM (inactive) | GI50 (HT-29): > 10 µM (inactive) | GI50 (COLO 205): > 10 µM (inactive) | GI50 (IGROV-1): > 10 µM (inactive) | GI50 (SW-620): > 100 µM (inactive) | GI50 (SNB-75): 27 µM (inactive) | GI50 (DMS-114): > 10 µM (inactive) | GI50 (UACC-62): > 10 µM (inactive) | GI50 (TK-10): > 10 µM (inactive) | GI50 (HCC 2998): > 10 µM (inactive) | GI50 (A549): > 10 µM (inactive) | GI50 (CAKI-1): > 10 µM (inactive) | GI50 (OVCAR-3): > 10 µM (inactive) | GI50 (HOP-18): > 10 µM (inactive) | GI50 (NCI-H226): > 10 µM (inactive) | GI50 (A498): > 10 µM (inactive) | GI50 (HL-60): > 10 µM (inactive) | GI50 (SN12C): > 10 µM (inactive) | GI50 (OVCAR-8): > 10 µM (inactive) | GI50 (NCI-H522): > 10 µM (inactive) | GI50 (M14): > 10 µM (inactive) | GI50 (MOLT-4): > 10 µM (inactive) | GI50 (LOX IMVI): > 10 µM (inactive) | GI50 (SR): > 10 µM (inactive) | GI50 (SK-OV-3): > 10 µM (inactive) | GI50 (OVCAR-5): > 10 µM (inactive) | GI50 (HOP-92): > 10 µM (inactive) | GI50 (U-251): > 10 µM (inactive) | GI50 (KM-20L2): > 10 µM (inactive) | GI50 (ACHN): > 10 µM (inactive) | GI50 (HCT-116): > 10 µM (inactive) | GI50 (LXFL 529): > 10 µM (inactive) | GI50 (RXF 631): > 10 µM (inactive) | GI50 (XF498): > 10 µM (inactive) | GI50 (Malme-3M): > 10 µM (inactive) | GI50 (DLD-1): > 10 µM (inactive) | GI50 (UO-31): > 10 µM (inactive) | GI50 (OVCAR-4): > 10 µM (inactive) | GI50 (EKVX): > 10 µM (inactive) | GI50 (K562): > 10 µM (inactive) | GI50 (786-0): 68.7 µM (inactive) | GI50 (NCI-H23): > 10 µM (inactive) | GI50 (SNB-19): > 10 µM (inactive) | GI50 (UACC-257): > 10 µM (inactive) | GI50 (RPMI-8226): > 10 µM (inactive) | GI50 (SF-539): > 10 µM (inactive) | GI50 (SF-295): > 10 µM (inactive) | GI50 (SK-MEL-2): > 10 µM (inactive) | GI50 (HOP-62): > 10 µM (inactive) | GI50 (NCI-H460): > 10 µM (inactive) | GI50 (HCT-15): > 10 µM | GI50 (CCRF-CEM): > 10 µM (inactive) | GI50 (RXF 393): > 10 µM (inactive) | GI50 (SF-268): > 10 µM (inactive) | GI50 (M19-MEL): > 10 µM (inactive)

CC(C)(O)[C@@H]1CC[C@@]2(C)CCCC(O)C2(O)C1 (stereo not given in full)
GI50 (SK-MEL-28): > 100 µM (inactive) | GI50 (KM12): > 100 µM (inactive) | GI50 (SK-MEL-5): > 100 µM (inactive) | GI50 (HT-29): > 100 µM (inactive) | GI50 (COLO 205): > 100 µM (inactive) | GI50 (IGROV-1): > 100 µM (inactive) | GI50 (SW-620): > 100 µM (inactive) | GI50 (SNB-75): > 100 µM (inactive) | GI50 (DMS-114): > 100 µM (inactive) | GI50 (UACC-62): > 100 µM (inactive) | GI50 (TK-10): > 100 µM (inactive) | GI50 (HCC 2998): > 100 µM (inactive) | GI50 (A549): > 100 µM (inactive) | GI50 (CAKI-1): > 100 µM (inactive) | GI50 (OVCAR-3): > 100 µM (inactive) | GI50 (HOP-18): > 100 µM (inactive) | GI50 (NCI-H226): > 100 µM (inactive) | GI50 (A498): > 100 µM (inactive) | GI50 (HL-60): > 100 µM (inactive) | GI50 (SN12C): > 100 µM (inactive) | GI50 (OVCAR-8): > 100 µM (inactive) | GI50 (NCI-H522): > 100 µM (inactive) | GI50 (M14): > 100 µM (inactive) | GI50 (MOLT-4): > 100 µM (inactive) | GI50 (LOX IMVI): > 100 µM (inactive) | GI50 (SR): > 100 µM (inactive) | GI50 (SK-OV-3): > 100 µM (inactive) | GI50 (OVCAR-5): > 100 µM (inactive) | GI50 (HOP-92): > 100 µM (inactive) | GI50 (U-251): > 100 µM (inactive) | GI50 (KM-20L2): > 100 µM (inactive) | GI50 (ACHN): > 100 µM (inactive) | GI50 (HCT-116): > 100 µM (inactive) | GI50 (LXFL 529): > 100 µM (inactive) | GI50 (RXF 631): > 100 µM (inactive) | GI50 (XF498): > 100 µM (inactive) | GI50 (Malme-3M): > 100 µM (inactive) | GI50 (DLD-1): > 100 µM (inactive) | GI50 (UO-31): > 100 µM (inactive) | GI50 (OVCAR-4): > 100 µM (inactive) | GI50 (K562): > 100 µM (inactive) | GI50 (786-0): > 100 µM (inactive) | GI50 (NCI-H23): > 100 µM (inactive) | GI50 (SNB-19): > 100 µM (inactive) | GI50 (UACC-257): > 100 µM (inactive) | GI50 (RPMI-8226): > 100 µM (inactive) | GI50 (SF-539): > 100 µM (inactive) | GI50 (SF-295): > 100 µM (inactive) | GI50 (SK-MEL-2): > 100 µM (inactive) | GI50 (HOP-62): > 100 µM (inactive) | GI50 (NCI-H460): > 100 µM (inactive) | GI50 (DMS-273): > 100 µM (inactive) | GI50 (HCT-15): > 100 µM | GI50 (CCRF-CEM): > 100 µM (inactive) | GI50 (SF-268): > 100 µM (inactive) | GI50 (M19-MEL): > 100 µM (inactive)
